Reference: patent publication US20120329794A1, “Ab1 KINASE INHIBITORS” (Kyowa Hakko Kirin Co., Ltd., priority 2006, published 2012)

What follows are molecules tested against T1, Abl(T315I) protein (Homo sapiens, UniProt P00519, T315I) (assay: Abl T315I inhibitory activity (radiometric kinase assay)). Conditions: 1 μmol/L test compound.
T1 construct: purchased Upstate 14-522
Type: biochemical
Method: In order to measure Abl T315I inhibitory activity, the following method was used: A reaction solution was prepared so that the final concentrations in a volume of 25 μL were 5 to 10 mU of Abl(T315I) protein (Upstate, catalog No. 14-522), 8 mmol/L of 3-morpholinopropane sulfonic acid (pH 7.0), 0.2 mmol/L of, EDTA, 50 μmol/L of EAIYAAPFAKKK, 10 mmol/L of Mg acetate, [γ-^33P-ATP] (500 cpm/pmol), 0.1% of dimethyl sulfoxide (DMSO), and 1 μmol/L of test compound, followed by enzyme reaction at room temperature for 40 minutes. The reaction was terminated with 5 μL of a 3% aqueous phosphoric acid solution, and the reaction solution was added to a P30 filter mat. Then, the filter was washed with a 75 mmol/L aqueous phosphoric acid solution three times and 100% methanol once, and then dried. Then, the radioactivity of the filter was measured.
Assuming that a measured value of an enzyme to which 0.1% of DMSO was added was 100%, and a measured value of a sample to which an enzyme was not added was 0%, the relative activity (%) of radioactivity of a sample to which the test compound was added was calculated, and a value obtained by subtracting the calculated value from 100 was considered as Abl T315I inhibitory activity (%) of the test compound.

Inhibition at 1 µM, ≥ 90%:
COCC(=O)N1CCN(C(=O)c2ccc(/C=C/c3n[nH]c4ccccc34)cc2)CC1 [Compound 7]
Nc1cc(/C=C/c2n[nH]c3ccccc23)ccc1OCCN1CCOCC1 [Compound 4]
CC(=O)N1CCN(C(=O)c2ccc(/C=C/c3n[nH]c4ccccc34)cc2)CC1 [Compound 6]
